Structures can show the parent of a compound that is named as a salt.
SMILES | melting point
FC(F)(F)Oc1ccc(-c2c[nH]c([C@@H](NC3CCC3)C3CCCCC3)n2)cc1 [Example 270, N-((S)-cyclohexyl{4-[4-(trifluoromethoxy)phenyl]-1H-imidazol-2-yl}methyl)-cyclobutanamine] | 136 to 140 °C
CCCCCCC(N)c1nc(-c2cccc(Br)c2)c[nH]1 (racemic) (as salt: hydrochloride) [Example 191, (R,S)-1-[4-(3-bromophenyl)-1H-imidazol-2-yl]-1-heptanamine] | 230 to 231 °C
O=C(NCCc1nc(-c2ccc(-c3ccccc3)cc2)c[nH]1)OCC1CCC1 [Example 285, cyclobutylmethyl 2-(4-[1,1′-biphenyl]-4-yl-1H-imidazol-2-yl)ethylcarbamate] | 144 to 145 °C
CC(C)(C)OC(=O)NCc1nc(-c2ccc(-c3ccccc3)cc2)c[nH]1 [Example 137, 4-(2-{[(tert-butoxycarbonyl)amino]methyl}-1H-imidazol-4-yl)-1,1′-biphenyl] | 100 to 102 °C
CS(=O)(=O)c1ccc(-c2c[nH]c([C@@H](NC3CCCCC3)C3CCCCC3)n2)cc1 [Example 138, N-{(S)-cyclohexyl[4-(4-methylsulphonylphenyl)-1H-imidazol-2-yl]methyl}cyclohexanamine] | 152 to 154 °C
CN(C)Cc1nc(-c2ccccc2)cn1Cc1ccccc1 [Example 45, (1-benzyl-4-phenyl-1H-imidazol-2-yl)-N,N-dimethylmethanamine] | 78 to 80 °C
CCCCCCC(NCc1ccccc1)c1nc(-c2cccc(OC)c2)c[nH]1 (racemic) [Example 216, (R,S)-N-benzyl-1-[4-(3-methoxyphenyl)-1H-imidazol-2-yl]-1-heptanamine] | 141 to 142 °C
CCCCOC(=O)NCCc1nc(-c2ccc(C(F)(F)F)cc2)c[nH]1 [Example 300, butyl 2-{4-[4-(trifluoromethyl)phenyl]-1H-imidazol-2-yl}ethylcarbamate] | 104 to 105 °C
O=C(NCCc1nc(-c2ccc(-c3ccccc3)cc2)c[nH]1)OCCc1ccccc1 [Example 391, 2-phenylethyl 2-[4-(1,1′-biphenyl-4-yl)-1H-imidazol-2-yl]ethylcarbamate] | 142 to 143 °C
CCCCCCC(NCc1ccccc1)c1nc(-c2ccc(-c3ccccc3)cc2)c[nH]1 (racemic) [Example 195, (R,S)-N-benzyl-1-(4-[1,1′-biphenyl]-4-yl-1H-imidazol-2-yl)-1-heptanamine] | 100 to 102 °C
CC(C)(C)c1ccc(-c2c[nH]c(CCNC(=O)OCC3CCC3)n2)cc1 [Example 340, cyclobutylmethyl 2-[4-(4-tert-butylphenyl)-1H-imidazol-2-yl]ethylcarbamate] | 103 °C
c1cc(C2CCCCC2)ccc1-c1c[nH]c([C@@H](NC2CCC2)C2CCCCC2)n1 (as salt: hydrochloride) [Example 275, N-{(S)-cyclohexyl[4-(4-cyclohexylphenyl)-1H-imidazol-2-yl]methyl}cyclobutanamine] | 190 to 192 °C
CCOC(=O)NCCc1nc(-c2ccc(-c3ccccc3)cc2)c[nH]1 [Example 246, 4-(2-{2-[(ethoxycarbonyl)amino]ethyl}-1H-imidazol-4-yl)-1,1′-biphenyl] | 132.5 °C
CC(C)(C)OC(=O)NC1(c2nc(-c3ccccc3)c[nH]2)CCCCC1 [Example 113, tert-butyl 1-(4-phenyl-1H-imidazol-2-yl)cyclohexylcarbamate] | 170 to 172 °C
O=C(NCCc1nc(-c2ccc(N3CCCC3)cc2)c[nH]1)OCCCC(F)(F)F [Example 385, 4,4,4-trifluorobutyl 2-[4-(4-pyrrolidin-1-ylphenyl)-1H-imidazol-2-yl]ethylcarbamate] | 148.3 °C
CC(C)CCCC(N)c1nc(-c2cccc(Br)c2)c[nH]1 (racemic) (as salt: hydrochloride) [Example 233, (R,S)-1-[4-(3-bromophenyl)-1H-imidazol-2-yl]-5-methyl-1-hexanamine] | 200 to 202 °C

Reference: patent publication US7291641B2, “Derivatives of heterocycles with 5 members, their preparation and their use as medicaments” (Societe de Conseils de Recherches et d'Applications …, priority 1999, dated 2007)
